Assay results reported in patent US20170156324A1 (Dow AgroSciences LLC, priority 2015, published 2017).
“And” between values parts separate entries of the source, which are not always exact repeats. Equal entries are not always repeated.

How the values were obtained:
Format in all cases: in vivo
[1] = system: Apera spica-venti (L.) Beauv. (windgrass, APESV); test: Field trial, post-emergence % visual weed control, APESV
Excerpt: (§1) Except for the trials utilizing the OD formulations, Actirob B was applied at 0.5 or 1.0 liters per hectare (L/ha), or Polyglycol 26-2 was applied at 0.5 to 1.0 L/ha in all respective single and tankmixture treatments being evaluated.
(§2) Trials were established as randomized complete blocks (RCBD) with three to four replicates. Individual treatments were 2-2.5 meters (m) wide and 6-20 m long. An untreated control was included in each trial. All trial sites had naturally occurring populations of weeds.
(§3) Herbicides were applied with backpack or bicycle sprayers using compressed air, nitrogen (N2) or carbon dioxide (CO2) as a propellant. All sprayers delivered a uniform spray pattern that provided thorough coverage of the foliage using a water volume of 150-300 L/ha. All herbicides were applied post-emergence in the spring to early-summer At the time of herbicide applications, winter wheat crops were at the six-leaf to three-tiller stage. Broadleaf and grass weeds were at a similar stage of growth at the time of herbicide application, typically from five leaf to 3 tiller depending on the weed species and time of year.
(§4) The treated plots and control plots were rated blind at various intervals after application. […] The control of the target weeds was visually assessed as percent control, compared to an untreated control plot. The assessments were based on a percent visual reduction in pest plant biomass and/or stand reduction of weed population.
(§5) The efficacy of all treatments was assessed at 13-22 days after application (DAA) for an early season rating, 23-39 DAA for a mid-season rating, and 41-84 DAA for a late-season rating. The data were statistically analyzed using various statistical methods, generally including a Tukey's HSD Factorial Analysis of Variance with a significance level of 5%.
(§6) Colby's equation was used to determine the herbicidal effects expected from the mixtures (Colby, S. R. Calculation of the synergistic and antagonistic response of herbicide combinations. Weeds 1967, 15, 20-22). A t-test (alpha=0.05) between Colby predictions and observed combinations was used to test for significant differences indicating synergy or antagonism using replicate data.
(§7) Expected=A+B+C−(AB+AC+BC)/100+(ABC)/10,000

[2] = system: Echinochloa crus-galli (L.) P. Beauv. (barnyardgrass, ECHCG); test: Field trial, post-emergence % visual weed control, ECHCG; conditions: 3 g ae/ha
Excerpt: as §1, §2, §3, §4, §5, §6, §7

[3] = system: Galium aparine L. (catchweed bedstraw, GALAP); test: Field trial, post-emergence % visual weed control, GALAP; conditions: 28DAA, 3 g ae/ha
Excerpt: as §1, §2, §3, §4, §5
(§8) Colby's equation was used to determine the herbicidal effects expected from the mixtures (Colby, S. R. Calculation of the synergistic and antagonistic response of herbicide combinations. Weeds 1967, 15, 20-22). […]

[4] = system: Lamium purpureum L. (purple deadnettle, LAMPU); test: Field trial, post-emergence % visual weed control, LAMPU; conditions: 15DAA
Excerpt: as §1, §2, §3, §4, §5, §6, §7

[5] = system: Stellaria media (L.) Vill. (common chickweed, STEME); test: Field trial, post-emergence % visual weed control, STEME
Excerpt: as §1, §2, §3, §4, §5, §6, §7

[6] = system: Centaurea cyanus (cornflower, CENCY); test: Field trial, post-emergence % visual weed control, CENCY
Excerpt: as §1, §2, §3, §4, §5, §6, §7

[7] = system: Consolida regalis S. F. Gray (branching larkspur, CNSRE); test: Field trial, post-emergence % visual weed control, CNSRE
Excerpt: as §1, §2, §3, §4, §5, §6, §7

[8] = system: Alopecurus myosuroides Huds. (blackgrass, ALOMY); test: Field trial, post-emergence % visual weed control, ALOMY; conditions: 15DAA, 4 g ae/ha
Excerpt: as §1, §2, §3, §4, §5, §8

[9] = system: Solanum nigrum L. (black nightshade, SOLNI); test: Field trial, post-emergence % visual weed control, SOLNI; conditions: 3 g ae/ha
Excerpt: as §1, §2, §3, §4, §5, §6, §7

[10] = system: Viola arvensis Murr. (field violet, VIOAR); test: Field trial, post-emergence % visual weed control, VIOAR
Excerpt: as §1, §2, §3, §4, §5, §6, §7

[11] = system: Matricaria recutita L. (wild chamomile, MATCH); test: Field trial, post-emergence % visual weed control, MATCH
Excerpt: as §1, §2, §3, §4, §5, §6, §7

[12] = system: Agropyron repens L. (quackgrass, AGRRE); test: Field trial, post-emergence % visual weed control, AGRRE; conditions: 14DAA, 3 g ae/ha
Excerpt: as §1, §2, §3, §4, §5, §8

[13] = system: Matricaria inodora (scentless mayweed, MATIN); test: Field trial, post-emergence % visual weed control, MATIN; conditions: 14DAA
Excerpt: as §1, §2, §3, §4, §5, §6, §7

COC(=O)c1nc(-c2ccc(Cl)c(OC)c2F)cc(N)c1Cl [Halauxifen-Methyl, methyl 4-amino-3-chloro-6-(4-chloro-2-fluoro-3-methoxyphenyl)pyridine-2-carboxylate]
Mean % Weed Control ([1]; 14DAA, 3 g ae/ha): 0.0%
Mean % Weed Control ([1]; 14DAA, 4 g ae/ha): 0.0%
Mean % Weed Control ([1]; 28DAA, 3 g ae/ha): 0.0%
Mean % Weed Control ([1]; 28DAA, 4 g ae/ha): 0.0%
Mean % Weed Control ([1]; 56DAA, 3 g ae/ha): 0.0%
Mean % Weed Control ([2]; 14DAA): 0.0%
Mean % Weed Control ([2]; 29DAA): 0.0%
Mean % Weed Control ([2]; 56DAA): 0.0%
Mean % Weed Control [3]: 0.0%
Mean % Weed Control ([4]; 4.8 g ae/ha): 72.5%
Mean % Weed Control ([4]; 6 g ae/ha): 55.0%
Mean % Weed Control ([5]; 15DAA, 4.8 g ae/ha): 0.0%
Mean % Weed Control ([5]; 15DAA, 6 g ae/ha): 0.0%
Mean % Weed Control ([5]; 61DAA, 4.8 g ae/ha): 0.0%
Mean % Weed Control ([5]; 61DAA, 6 g ae/ha): 1.3% and 3.2%
Mean % Weed Control ([5]; 78DAA, 4.8 g ae/ha): 6.3%
Mean % Weed Control ([5]; 78DAA, 6 g ae/ha): 8.8%
Mean % Weed Control ([6]; 28DAA, 3 g ae/ha): 75.0%
Mean % Weed Control ([6]; 77DAA, 3 g ae/ha): 82.5%
Mean % Weed Control ([6]; 84DAA, 3 g ae/ha): 1.3%
Mean % Weed Control ([6]; 84DAA, 4 g ae/ha): 27.5%
Mean % Weed Control ([7]; 31DAA, 3 g ae/ha): 68.3%
Mean % Weed Control ([7]; 31DAA, 4 g ae/ha): 70.8%
Mean % Weed Control ([7]; 53DAA, 3 g ae/ha): 70.0%
Mean % Weed Control ([7]; 53DAA, 4 g ae/ha): 72.0%
Mean % Weed Control ([7]; 84DAA, 3 g ae/ha): 70.0%
Mean % Weed Control ([7]; 84DAA, 4 g ae/ha): 72.5%
Mean % Weed Control [8]: 0.0%
Mean % Weed Control ([9]; 29DAA): 10.0%
Mean % Weed Control ([9]; 56DAA): 0.0%
Mean % Weed Control ([10]; 14DAA, 3 g ae/ha): 0.0%
Mean % Weed Control ([10]; 14DAA, 4 g ae/ha): 0.0%
Mean % Weed Control ([10]; 56DAA, 3 g ae/ha): 0.0%
Mean % Weed Control ([11]; 15DAA, 4.8 g ae/ha): 0.0%
Mean % Weed Control ([11]; 61DAA, 4.8 g ae/ha): 0.0%
Mean % Weed Control ([11]; 61DAA, 6 g ae/ha): 1.3% and 3.2%
Mean % Weed Control ([11]; 78DAA, 4.8 g ae/ha): 6.3%
Mean % Weed Control ([11]; 78DAA, 6 g ae/ha): 6.3%
Mean % Weed Control [12]: 0.0%
Mean % Weed Control ([13]; 3 g ae/ha): 0.0%
Mean % Weed Control ([13]; 4 g ae/ha): 0.0%
